The values that follow come from paper PMC11202288, “The Structural Basis of the Activity Cliff in Modafinil-Based Dopamine Transporter Inhibitors” (Biomolecules, 2024).

Where two headings read alike, the source gives them in different places.

The assay has as its target T1, hDAT (human dopamine transporter) (Homo sapiens, UniProt Q01959).
T1 construct: gene SLC6A3; full-length human DAT stably expressed in HEK293 cells; membrane preparation
The assay is described as follows: [3H]WIN35, […] competition binding, HEK293-hDAT membranes.

The mark [1] stands for this setting: read-out: hDAT Ki ± SEM (nM) ^a (n).

As a reminder, the Ki is the dissociation constant of the complex between target and ligand, obtained from inhibition or displacement.

T1 sequence (Q01959 whole entry): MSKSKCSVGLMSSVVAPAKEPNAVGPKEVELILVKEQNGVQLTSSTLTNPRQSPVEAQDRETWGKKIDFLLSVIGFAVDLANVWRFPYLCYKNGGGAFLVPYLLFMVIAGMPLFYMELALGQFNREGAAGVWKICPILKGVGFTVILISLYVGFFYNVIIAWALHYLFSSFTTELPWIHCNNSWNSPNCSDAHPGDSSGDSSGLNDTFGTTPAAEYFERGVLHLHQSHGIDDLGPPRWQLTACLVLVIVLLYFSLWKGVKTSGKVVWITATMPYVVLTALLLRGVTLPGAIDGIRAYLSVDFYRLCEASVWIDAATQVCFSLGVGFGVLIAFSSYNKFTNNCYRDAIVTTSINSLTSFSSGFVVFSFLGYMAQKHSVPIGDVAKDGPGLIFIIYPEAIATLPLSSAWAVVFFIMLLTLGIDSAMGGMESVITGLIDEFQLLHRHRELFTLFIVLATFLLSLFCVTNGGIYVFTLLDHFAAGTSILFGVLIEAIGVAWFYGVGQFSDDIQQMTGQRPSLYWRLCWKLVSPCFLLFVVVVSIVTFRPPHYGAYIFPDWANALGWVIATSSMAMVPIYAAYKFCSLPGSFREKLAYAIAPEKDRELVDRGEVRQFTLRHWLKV

For `CC(O)CN1CCN(CCSC(c2ccc(F)cc2)c2ccc(F)cc2)CC1` (stereo not drawn) [JJC8-089], under setting [1], the inhibition constant (Ki) is 69.1 ± 10.5 nM. For the compound `CC(O)CN1[C@H](C)CN(CCSC(c2ccc(F)cc2)c2ccc(F)cc2)C[C@@H]1C` (stereo partly drawn) [RDS3-094], the inhibition constant Ki came out at 50.1 ± 6.51 nM. With `CC(O)CN1[C@H](C)CN(CC[S+]([O-])C(c2ccc(F)cc2)c2ccc(F)cc2)C[C@@H]1C` (stereo partly drawn) [RDS4-010], the inhibition constant (Ki) under setting [1] stood at 1570 ± 186 nM.
